# Assay results published in patent publication US10485235B2, “Aryloxypyrimidinyl ethers as herbicides” (FMC Corporation, priority 2015, dated 2019).
# What was measured:
# Format in all cases: in vivo
# [1] = test system: sedge, umbrella (small-flower umbrella sedge, Cyperus difformis); assay: Test B flooded paddy test, umbrella sedge; details: 250 g ai/ha, Flood; visual rating after 13 to 15 days; scale 0 to 100, 0 is no effect, 100 is complete control
# Outline: (§1)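 Plants grown to 2-leaf stage, pots flooded to 3 cm above soil and compound applied directly to paddy water, depth maintained throughout. After 13-15 days in greenhouse, visual rating against untreated controls on 0-100 scale (0 no effect, 100 complete control).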
# [2] = test system: foxtail, giant (giant foxtail, Setaria faberii); assay: Test A preemergence, giant foxtail; details: Preemergence, 0 to 100 scale (0 no effect, 100 complete control)
# Outline: (§2)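 Planted seeds in loam soil mixed with sand; sprayed soil directly (pre). Grew seedlings to one- to two-leaf stage, 2–10 cm; sprayed foliage (post). Held in greenhouse ~10 days. Rated injury visually vs untreated controls, 0–100.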
# [3] = test system: blackgrass (Alopecurus myosuroides); assay: Test A postemergence, blackgrass; details: postemergence, 0 to 100 scale, 0 is no effect, 100 is complete control, approximately 10 days
# Outline: as §2
# [4] = test system: ragweed (common ragweed, Ambrosia elatior); assay: Test A postemergence, ragweed; details: postemergence, 0 to 100 scale, 0 is no effect, 100 is complete control, approximately 10 days
# Outline: as §2
# [5] = test system: ryegrass, Italian (Italian ryegrass, Lolium multiflorum); assay: Test A preemergence, Italian ryegrass; details: Preemergence, 0 to 100 scale (0 no effect, 100 complete control)
# Outline: as §2
# [6] = test system: foxtail, giant (giant foxtail, Setaria faberii); assay: Test A postemergence, giant foxtail; details: postemergence, 0 to 100 scale, 0 is no effect, 100 is complete control, approximately 10 days
# Outline: as §2
# [7] = test system: barnyardgrass (Echinochloa crus-galli); assay: Test A postemergence, barnyardgrass; details: postemergence, 0 to 100 scale, 0 is no effect, 100 is complete control, approximately 10 days
# Outline: as §2
# kochia (Kochia scoparia) [8] = assay: Test A postemergence, kochia; details: postemergence, 0 to 100 scale, 0 is no effect, 100 is complete control, approximately 10 days
# Outline: as §2
# [9] = test system: pigweed (Amaranthus retroflexus); assay: Test A preemergence, pigweed; details: Preemergence, 0 to 100 scale (0 no effect, 100 complete control)
# Outline: as §2
# corn (Zea mays) = assay: Test A postemergence, corn; details: postemergence, 0 to 100 scale, 0 is no effect, 100 is complete control, approximately 10 days
# Outline: as §2
# [10] = test system: ryegrass, Italian (Italian ryegrass, Lolium multiflorum); assay: Test A postemergence, Italian ryegrass; details: postemergence, 0 to 100 scale, 0 is no effect, 100 is complete control, approximately 10 days
# Outline: as §2
# [11] = test system: galium (catchweed bedstraw, Galium aparine); assay: Test A postemergence, galium; details: postemergence, 0 to 100 scale, 0 is no effect, 100 is complete control, approximately 10 days
# Outline: as §2
# [12] = test system: ragweed (common ragweed, Ambrosia elatior); assay: Test A preemergence, ragweed; details: Preemergence, 0 to 100 scale (0 no effect, 100 complete control)
# Outline: as §2
# kochia (Kochia scoparia) [13] = assay: Test A preemergence, kochia; details: Preemergence, 0 to 100 scale (0 no effect, 100 complete control)
# Outline: as §2
# rice (Oryza sativa) = assay: Test B flooded paddy test, rice; details: 250 g ai/ha, Flood; visual rating after 13 to 15 days; scale 0 to 100, 0 is no effect, 100 is complete control
# Outline: as §1
# [14] = test system: barnyardgrass (Echinochloa crus-galli); assay: Test B flooded paddy test, barnyardgrass; details: 250 g ai/ha, Flood; visual rating after 13 to 15 days; scale 0 to 100, 0 is no effect, 100 is complete control
# Outline: as §1
# [15] = test system: pigweed (Amaranthus retroflexus); assay: Test A postemergence, pigweed; details: postemergence, 0 to 100 scale, 0 is no effect, 100 is complete control, approximately 10 days
# Outline: as §2
# [16] = test system: ducksalad (Heteranthera limosa); assay: Test B flooded paddy test, ducksalad; details: 250 g ai/ha, Flood; visual rating after 13 to 15 days; scale 0 to 100, 0 is no effect, 100 is complete control
# Outline: as §1
# [17] = test system: barnyardgrass (Echinochloa crus-galli); assay: Test A preemergence, barnyardgrass; details: Preemergence, 0 to 100 scale (0 no effect, 100 complete control)
# Outline: as §2
# [18] = test system: wheat (Triticum aestivum); assay: Test A postemergence, wheat; details: postemergence, 0 to 100 scale, 0 is no effect, 100 is complete control, approximately 10 days
# Outline: as §2
SMILES,"Plant response rating, Sedge, Umbrella [1]","Plant response rating, Foxtail, Giant ([2]; 125 g ai/ha)","Plant response rating, Foxtail, Giant ([2]; 500 g ai/ha)","Plant response rating, Blackgrass ([3]; 125 g ai/ha)","Plant response rating, Blackgrass ([3]; 500 g ai/ha)","Plant response rating, Ragweed ([4]; 125 g ai/ha)","Plant response rating, Ragweed ([4]; 500 g ai/ha)","Plant response rating, Ryegrass, Italian ([5]; 125 g ai/ha)","Plant response rating, Ryegrass, Italian ([5]; 500 g ai/ha)","Plant response rating, Foxtail, Giant ([6]; 125 g ai/ha)","Plant response rating, Foxtail, Giant ([6]; 500 g ai/ha)","Plant response rating, Barnyardgrass ([7]; 125 g ai/ha)","Plant response rating, Barnyardgrass ([7]; 500 g ai/ha)","Plant response rating, Kochia (kochia (Kochia scoparia) [8]; 125 g ai/ha)","Plant response rating, Kochia (kochia (Kochia scoparia) [8]; 500 g ai/ha)","Plant response rating, Pigweed ([9]; 125 g ai/ha)","Plant response rating, Pigweed ([9]; 500 g ai/ha)","Plant response rating, Corn (corn (Zea mays); 125 g ai/ha)","Plant response rating, Corn (corn (Zea mays); 500 g ai/ha)","Plant response rating, Ryegrass, Italian ([10]; 125 g ai/ha)",other results
FC(F)COc1c(Br)cccc1Oc1ncc(Cl)cn1 [Compound 17],80,100,100,10,90,0,40,10,70,40,100,20,90,100,100,100,100,20,50,0,"Plant response rating, Ryegrass, Italian ([10]; 500 g ai/ha): 70; Plant response rating, Galium ([11]; 125 g ai/ha): 30; Plant response rating, Galium ([11]; 500 g ai/ha): 80; Plant response rating, Ragweed ([12]; 125 g ai/ha): 0; Plant response rating, Ragweed ([12]; 500 g ai/ha): 30; Plant response rating, Kochia (kochia (Kochia scoparia) [13]; 125 g ai/ha): 90; Plant response rating, Kochia (kochia (Kochia scoparia) [13]; 500 g ai/ha): 100; Plant response rating, Rice (rice (Oryza sativa)): 0; Plant response rating, Barnyardgrass [14]: 0; Plant response rating, Pigweed ([15]; 125 g ai/ha): 100; Plant response rating, Pigweed ([15]; 500 g ai/ha): 100; Plant response rating, Ducksalad [16]: 85; Plant response rating, Barnyardgrass ([17]; 125 g ai/ha): 80; Plant response rating, Barnyardgrass ([17]; 500 g ai/ha): 100; Plant response rating, Wheat ([18]; 125 g ai/ha): 0; Plant response rating, Wheat ([18]; 500 g ai/ha): 20"
FC(F)(F)c1ccc(COc2c(Br)cccc2Oc2ncc(Cl)cn2)cc1 [Compound 19],0,10,90,0,10,10,20,0,20,0,20,0,20,10,50,0,0,10,30,0,"Plant response rating, Ryegrass, Italian ([10]; 500 g ai/ha): 0; Plant response rating, Galium ([11]; 125 g ai/ha): 0; Plant response rating, Galium ([11]; 500 g ai/ha): 30; Plant response rating, Ragweed ([12]; 125 g ai/ha): 0; Plant response rating, Ragweed ([12]; 500 g ai/ha): 0; Plant response rating, Kochia (kochia (Kochia scoparia) [13]; 125 g ai/ha): 0; Plant response rating, Kochia (kochia (Kochia scoparia) [13]; 500 g ai/ha): 0; Plant response rating, Rice (rice (Oryza sativa)): 0; Plant response rating, Barnyardgrass [14]: 0; Plant response rating, Pigweed ([15]; 125 g ai/ha): 20; Plant response rating, Pigweed ([15]; 500 g ai/ha): 100; Plant response rating, Ducksalad [16]: 0; Plant response rating, Barnyardgrass ([17]; 125 g ai/ha): 0; Plant response rating, Barnyardgrass ([17]; 500 g ai/ha): 60; Plant response rating, Wheat ([18]; 125 g ai/ha): 0; Plant response rating, Wheat ([18]; 500 g ai/ha): 20"
N#Cc1cccc(Oc2ncc(Cl)cn2)c1OCc1ccc(C(F)(F)F)cc1 [Compound 20],0,90,100,0,20,20,30,0,20,10,30,10,30,50,100,30,100,10,20,0,"Plant response rating, Ryegrass, Italian ([10]; 500 g ai/ha): 20; Plant response rating, Galium ([11]; 125 g ai/ha): 30; Plant response rating, Galium ([11]; 500 g ai/ha): 80; Plant response rating, Ragweed ([12]; 125 g ai/ha): 0; Plant response rating, Ragweed ([12]; 500 g ai/ha): 0; Plant response rating, Kochia (kochia (Kochia scoparia) [13]; 125 g ai/ha): 0; Plant response rating, Kochia (kochia (Kochia scoparia) [13]; 500 g ai/ha): 50; Plant response rating, Rice (rice (Oryza sativa)): 0; Plant response rating, Barnyardgrass [14]: 0; Plant response rating, Pigweed ([15]; 125 g ai/ha): 90; Plant response rating, Pigweed ([15]; 500 g ai/ha): 90; Plant response rating, Ducksalad [16]: 0; Plant response rating, Barnyardgrass ([17]; 125 g ai/ha): 20; Plant response rating, Barnyardgrass ([17]; 500 g ai/ha): 30; Plant response rating, Wheat ([18]; 125 g ai/ha): 10; Plant response rating, Wheat ([18]; 500 g ai/ha): 10"
N#Cc1cccc(Oc2ncc(Cl)cn2)c1OCc1cccc(Cl)c1 [Compound 21],0,40,100,0,20,10,20,0,10,10,40,10,20,40,70,10,40,10,20,0,"Plant response rating, Ryegrass, Italian ([10]; 500 g ai/ha): 0; Plant response rating, Galium ([11]; 125 g ai/ha): 20; Plant response rating, Galium ([11]; 500 g ai/ha): 70; Plant response rating, Ragweed ([12]; 125 g ai/ha): 0; Plant response rating, Ragweed ([12]; 500 g ai/ha): 0; Plant response rating, Kochia (kochia (Kochia scoparia) [13]; 125 g ai/ha): 0; Plant response rating, Kochia (kochia (Kochia scoparia) [13]; 500 g ai/ha): 30; Plant response rating, Rice (rice (Oryza sativa)): 0; Plant response rating, Barnyardgrass [14]: 0; Plant response rating, Pigweed ([15]; 125 g ai/ha): 50; Plant response rating, Pigweed ([15]; 500 g ai/ha): 60; Plant response rating, Ducksalad [16]: 0; Plant response rating, Barnyardgrass ([17]; 125 g ai/ha): 0; Plant response rating, Barnyardgrass ([17]; 500 g ai/ha): 10; Plant response rating, Wheat ([18]; 125 g ai/ha): 0; Plant response rating, Wheat ([18]; 500 g ai/ha): 10"
